[nps] = N3'-P5' thiophosphoramidate linkage (3'-amino-3'-deoxy nucleosides); {Palm} = O-[2-hydroxy-3-(hexadecanoylamino)propyl] group (palmitoyl lipid)
Legend:
[1] = tested on: patients with high or intermediate-2 risk myelofibrosis; assay: Clinical study (NCT01731951): adverse events by common terminology criteria (Version 4.03); assay type: in vivo, human
Procedure: (§1) In an investigator-sponsored single-center study (ClinicalTrials.gov, Identifier: NCT01731951), imetelstat sodium was administered to patients with high or intermediate-2 risk myelofibrosis. Adverse events were monitored by common terminology criteria (Version 4.03), and responses were monitored by the International Working Group criteria. Eligibility criteria included platelets≥50×10^9/L.
(§2) Imetelstat sodium was administered by a 2-hour intravenous infusion (9.4 mg/kg) every three weeks (cohort A) or weekly×3 followed by every three weeks (cohort B). In addition, patient samples were screened for mutations in ASXL1, SRSF2, SF3B1, and U2AF1 by DNA sequencing. Quantitative PCR was used to measure JAK2V617F burden (assay sensitivity 0.01%). Laboratory correlative studies included analyses of granulocyte telomere length, mononuclear cell telomerase activity, and the presence of human telomerase reverse transcriptase (hTERT) isoforms.
(§3) Thirty-three patients were accrued. The first 18 patients who were enrolled and followed for a minimum of three months or discontinued were assessed herein: eleven for cohort A, and seven for cohort B; 44% primary myelofibrosis, 33% post-PV myelofibrosis and 22% post-ET myelofibrosis. The median age was 68 years, and the baseline risk was high in 56% of the patients and intermediate-2 in 44% of the patients. Seven patients were transfusion-dependent. Median spleen size was 13 cm, and eleven patients had constitutional symptoms. Karyotype was abnormal in seven patients, and 89% were JAK2-mutated. Fifteen patients (83%) were previously treated, including seven with a JAK inhibitor and three with pomalidomide.

[2] = tested on: human telomerase reverse transcriptase (hTERT) isoforms; assay: Laboratory correlative study: human telomerase reverse transcriptase (hTERT) isoforms; assay type: in vivo; settings: treated myelofibrosis patients
Procedure: as §2

[3] = tested on: granulocyte telomere length; assay: Laboratory correlative study: granulocyte telomere length; assay type: in vivo, human; settings: treated myelofibrosis patients
Procedure: as §2

[4] = tested on: mononuclear cell telomerase activity; assay: Laboratory correlative study: mononuclear cell telomerase activity; assay type: in vivo, human; settings: treated myelofibrosis patients
Procedure: as §2

[5] = tested on: patients with high or intermediate-2 risk myelofibrosis; assay: Investigator-sponsored single-center clinical study (NCT01731951): responses by International Working Group criteria; assay type: in vivo, human
Procedure: as §1, §2, §3

[6] = cohort A (9.4 mg/kg every three weeks)
[7] = cohort B (9.4 mg/kg weekly x3 followed by every three weeks)
[8] = first 18 patients, 9.4 mg/kg iv

5′-[O-[2-hydroxy-3-[(1-oxohexadecyl)amino]propyl] phosphorothioate]-d(3′-amino-3′-deoxy-P-thio)(T-A-G-G-G-T-T-A-G-A-C-A-A) (SEQ ID NO:1) sodium salt (13) (TAGGGTTAGACAA; all [nps], 5' {Palm}*, sugars by position and methylation of C not given here; 3'-amino-3'-deoxy nucleosides, sodium salt) [imetelstat sodium, sodium salt of imetelstat, a synthetic lipid-conjugated, 13-mer oligonucleotide N3′ P5′-thio-phosphoramidate]
grade-3 anemia [1, 6]: 9% | grade-3 thrombocytopenia [1, 6]: 27% | grade-4 treatment-related adverse events [1, 6]: no grade-4 treatment-related adverse events | grade-3 anemia [1, 7]: one | grade-3 neutropenia [1, 7]: one | grade-3 thrombocytopenia [1, 7]: one | grade-4 thrombocytopenia [1, 7]: 29% | dose reduction necessary because of grade 3 or 4 myelosuppression ([1]; first 18 patients): 11% | patients remaining on treatment ([1]; median follow-up of 3.2 months, first 18 patients): 89% | grade-3/4 myelosuppression ([1]; patients with an unmutated spliceosome genotype): 25% | grade-3/4 myelosuppression ([1]; spliceosome-mutated patients): 67% | effect on hTERT isoform pattern [2]: alteration of the hTERT isoform pattern | effect on telomere length [3]: shortening of telomere length | effect on telomerase activity [4]: suppression of telomerase activity | complete molecular responses ([5]; CR patients, U2AF1Q157P and 10% JAK2V617F, SF3B1K666E and 50% JAK2V617F): two | reduction in U2AF1 469_insAGTATG mutation ([5]; a third CR patient): > 50% | patients with leukocytosis who normalized their count or had a >50% reduction ([5]; among thirteen patients with leukocytosis): 77% | CR patients transfusion-dependent at baseline who became transfusion-independent ([5]; first 18 patients): Two | complete or partial resolution of leukoerythroblastosis ([5]; first 18 patients): 61% | overall response rate ([5]; first 18 patients, 9.4 mg/kg 2-hour intravenous infusion, cohorts A and B): 44% | CR patients with reversal of bone marrow fibrosis and recovery of normal megakaryocyte morphology [5, 8]: 22% | partial response (PR), number of patients [5, 8]: 1 patients | patients who met the bone marrow and peripheral blood morphologic criteria for complete response (CR) or partial response (PR) [5, 8]: 28% | patients with clinical improvement ([5]; first 18 patients, pending validation of response duration and resolution of drug-induced grade-1 thrombocytopenia): three | patients achieving CR ([5]; six patients with a spliceosome mutated genotype): 50% | patients achieving CR ([5]; twelve patients with an unmutated spliceosome genotype): 8%

imetelstat: telomerase inhibitor; synthetic lipid-conjugated, 13-mer oligonucleotide N3′ P5′-thio-phosphoramidate (DNA TAGGGTTAGACAA; listed as DNA, chemistry not fully specified)
likelihood of complete or partial remission ([5]; ASXL1-mutated cases among the 33 study patients): 0% | likelihood of complete or partial remission ([5]; ASXL1-unmutated cases among the 33 study patients): 36%

Reference: US11123359B2, “Methods and materials for treating hematological malignancies” (Mayo Foundation for Medical Education and Research, priority 2013, dated 2021)
